BindingDB's records for doi:10.1021/jm00092a001 (Wyeth-Ayerst Research, 1992)

Assays:
[1] = target: Polyunsaturated fatty acid 5-lipoxygenase (Mus musculus) (UniProt P48999); assay: The compound was tested for inhibitory activity against 5-lipoxygenase in mouse
[2] = The compound was tested for inhibitory activity against 5-Lipoxygenase in guinea pig polymorphonuclear leukocytes

Polyunsaturated fatty acid 5-lipoxygenase (Mus musculus), sequence (P48999 whole entry, looked up): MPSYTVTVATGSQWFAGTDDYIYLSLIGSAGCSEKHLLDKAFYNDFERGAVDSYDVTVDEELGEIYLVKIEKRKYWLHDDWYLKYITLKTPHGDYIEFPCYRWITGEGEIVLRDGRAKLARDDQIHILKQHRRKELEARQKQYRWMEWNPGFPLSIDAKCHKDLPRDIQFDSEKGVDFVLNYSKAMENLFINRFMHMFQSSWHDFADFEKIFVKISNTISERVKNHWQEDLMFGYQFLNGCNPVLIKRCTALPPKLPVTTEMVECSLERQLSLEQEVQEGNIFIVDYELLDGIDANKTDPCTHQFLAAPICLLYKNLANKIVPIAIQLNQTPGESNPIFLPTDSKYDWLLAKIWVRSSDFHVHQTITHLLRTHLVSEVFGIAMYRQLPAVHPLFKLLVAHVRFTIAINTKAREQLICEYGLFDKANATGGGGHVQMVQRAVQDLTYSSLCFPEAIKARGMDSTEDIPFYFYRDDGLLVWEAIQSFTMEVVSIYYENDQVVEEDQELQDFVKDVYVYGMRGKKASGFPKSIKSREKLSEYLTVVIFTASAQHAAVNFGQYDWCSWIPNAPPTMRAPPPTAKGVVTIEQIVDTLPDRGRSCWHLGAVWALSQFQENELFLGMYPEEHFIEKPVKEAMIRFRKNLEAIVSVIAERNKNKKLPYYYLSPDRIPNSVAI

Row | IC50 [1] [nM] | IC50 [2] [nM] | Compound
1 | 300 | – | Cc1nc(NCCCCCCc2ccccc2)nc(C)c1O
2 | – | 600 | Cc1ccc(C)n1-c1ccc(/C=C/CC(=O)N(C)O)cc1
